Values quoted from earlier work, collected in the CATMoS acute toxicity set (Mansouri et al. 2021).
Where “and” joins values, the source holds several entries; their conditions need not be identical. Equal entries are not always repeated.

assay: rat acute oral toxicity; conditions: in vivo

| Compound | LD50 |
| --- | --- |
| O=C1C=CCCC1 | 220 mg/kg |
| COc1cc(C)c2c(Oc3cccc(C(F)(F)F)c3)c(OC)cc(NC(C)CCCN)c2n1 (centres undefined) | 416 mg/kg |
| Cc1c(Cl)c(=O)oc2cc(OP(=O)(OCCCCl)OCCCCl)ccc12 | 211 mg/kg |
| CCCCC(CC)C(=O)O[Si](C)(OC(=O)C(CC)CCCC)OC(=O)C(CC)CCCC (centres undefined) | 2280 mg/kg |
| CN(C)c1nc2cc(Cl)ccc2o1 | 800 mg/kg |
| CCSC(=O)NC1CCCCC1 | 2300 mg/kg |
| O=[N+]([O-])c1cccc(S(=O)(=O)O)c1 | 11000 mg/kg |
| O=C1NC(=O)C(=O)C(=O)N1 | 5210 mg/kg |
| Clc1ccc2c(c1)C(c1ccccc1)=NCc1nncn1-2 | 2500 mg/kg |
| O=NN(CCF)C(=O)NC1CCCCC1 | 18.5 mg/kg |
| O=C(O)c1cccc(Cl)c1Cl | 300 mg/kg |
| Nc1ccc2[nH]c3c(c2c1)CCCC3 | 374 mg/kg |
| O=NN(CCCl)C(=O)NCCCl | 20 mg/kg |
| Cc1nccnc1N1CCCCC1 | 730 mg/kg |
| COC(F)=C(C(F)(F)F)C(F)(F)F | 1070 mg/kg |
| CCN(CCCCCCOC(=O)c1ccc(OC)c(OC)c1)C1CCc2cc(OC)c(OC)cc2C1 (centres undefined) | 561 mg/kg |
| Nc1ccc2c(c1)Cc1cc(N)ccc1-2 | 1070 mg/kg |
| O=S1OCC2C(CO1)C1(Cl)C(Cl)=C(Cl)C2(Cl)C1(Cl)Cl (centres undefined) | 240 mg/kg |
| O=[N+]([O-])c1ccc(OP(=O)(CCl)c2ccccc2)cc1 (centres undefined) | 203 mg/kg |
| CNC(=O)ON=C1SCC(=O)NC1C (centres undefined) | 5.66 mg/kg |
| CCOP(=O)(OCC)SCS(=O)(=O)CC | 0.5 mg/kg |
| c1ccc2c(c1)CN1CCN=C1N2 | 900 mg/kg |
| Cc1c(Cl)c(Br)c(Br)c2[nH]c(C(F)(F)F)nc12 | 23 mg/kg |
| COC(=O)c1ccco1 | 300 mg/kg |
| CCCCN=C(NCCCC)C(OCC)c1ccc(Cl)cc1 (centres undefined) | 220 mg/kg |

| Compound | LD50 |
| --- | --- |
| CCN(CC)CCNC(=O)COc1cc(OC)c(OC)c(OC)c1 | 1760 mg/kg |
| CCOc1ccc(C(CN(C)C)C(C)CC)cc1Cl (centres undefined) | 451 mg/kg |
| CCOC(=S)C=Cc1ccc([N+](=O)[O-])cc1 | 970 mg/kg |
| COc1ccc2c(c1)CCC(c1ccccc1)=C2c1ccc(OCCN2CCCC2)cc1 | 302 mg/kg |
| CN(CCN(C)N=O)N=O | 125 mg/kg |
| NC1CCCc2ccccc2C1 (centres undefined) | 270 mg/kg |
| CC1(C)S[C@@H]2[C@H](NC(=O)C(C(=O)Oc3ccc4c(c3)CCC4)c3ccccc3)C(=O)N2[C@H]1C(=O)O (some centres undefined) | 4450 mg/kg |
| CC(COc1ccc(C(C)(C)C)cc1)OS(=O)OCCCl (centres undefined) | 3900 mg/kg |
| O=C(NNC1OC(C(=O)O)C(O)C(O)C1O)c1ccncc1 (centres undefined) | 20300 mg/kg |
| CC(C)(CO)NCC(O)c1ccccc1 (centres undefined) | 2080 mg/kg |
| CCCCC(CC)CNC1CCCCC1 (centres undefined) | 710 mg/kg |
| Cc1cc(C)c(C)cc1C | 6990 mg/kg |
| O=C(NC(CCc1ccc2c(c1)OCO2)CCc1ccc2c(c1)OCO2)c1ccc(Cl)cc1 | 1800 mg/kg |
| CC(C(C)(C)C)C(C)(C)SSSC(C)(C)C(C)C(C)(C)C (centres undefined) | 19600 mg/kg |
| CCOP(=O)(OC=CCl)OCC | 7 mg/kg |
| O=P(O)(O)Oc1ccccc1 | 2290 mg/kg |
| CCCC(=O)C(CC)Cc1ccccc1 (centres undefined) | 4400 mg/kg |
| O=C1c2ccccc2C(=O)N1CC1CO1 (centres undefined) | 4700 mg/kg |
| O=C(O)CCCCCCCl | 1800 mg/kg |
| OC1(c2ccc(Cl)cc2)CCNCC1 | 465 mg/kg |
| COc1ccc(NC(=O)CC(C)=O)cc1 | 1700 mg/kg |
| NC(=S)C1CC=CCC1 (centres undefined) | 50 mg/kg |
| COCC(O)Cn1ccnc1[N+](=O)[O-] (centres undefined) | 2130 mg/kg |
| Cc1cc[nH]n1 | 710 mg/kg |
| CC(C)=CC(=O)O | 3560 mg/kg |

| Compound | LD50 |
| --- | --- |
| COP(=S)(OC)SCn1ncccc1=O | 3.5 mg/kg |
| O=C(Nc1cc(F)ccc1F)NC1CC1 | 152 mg/kg |
| CC(N)C1CCC(c2ccccc2)CC1 (centres undefined) | 690 mg/kg |
| Cc1onc(-c2c(F)cccc2Cl)c1C(=O)N[C@@H]1C(=O)N2[C@@H]1SC(C)(C)[C@@H]2C(=O)O | 11000 mg/kg |
| NN1C(=O)CSC1=S | 2.21 mg/kg |
| Cc1ccc(C)[nH]1 | 59 mg/kg |
| CC(F)(F)C(F)(F)C(F)(F)C(O)(F)F | 1110 mg/kg |
| CNC(N)=S | 50 mg/kg |
| Cc1cccc(CN2CCN(C(c3ccccc3)c3ccc(Cl)cc3)CC2)c1 (centres undefined) | 1750 mg/kg |
| CCOC(=O)Cc1[nH]nc2ccc(Cl)cc12 | 4800 mg/kg |
| CCOP(=S)(OCC)Oc1ccc(Cl)c([N+](=O)[O-])c1 | 100 mg/kg |
| CCCN(CCC)S(=O)(=O)c1ccc(C(=O)O)cc1 | 1600 mg/kg |
| O=C(O)c1ccc2c(c1)CCC(Cn1ccnc1)C2 (centres undefined) | 1990 mg/kg |
| c1ccc([I+]c2ccccc2)cc1 | 60 mg/kg |
| O=C1OC(CCN2CCCCC2)OC1(c1ccccc1)c1ccccc1 (centres undefined) | 1500 mg/kg |
| C[Si](C)(C)OP(=O)(O[Si](C)(C)C)O[Si](C)(C)C | 3440 mg/kg |
| CC12CCC(C(Br)C1=O)C2(C)C (centres undefined) | 4450 mg/kg |
| COc1cc(C)c2[nH]c(C)c(CCN3CC4CCC(CC4)C3)c2c1 | 787 mg/kg |
| CCCOC(=O)CC(SP(=O)(OC)OC)C(=O)OCCC (centres undefined) | 360 mg/kg |
| O=CC(Br)(Br)Br | 100 mg/kg |
| COc1ccc(CC2NCCc3cc(OC)c(OC)cc32)cc1OC (centres undefined) | 700 mg/kg |
| c1nnc(NCNc2nncs2)s1 | 260 mg/kg |
| COc1ccccc1C1CCN(CCCc2ccc3c(c2)CCC(=O)N3)CC1 | 500 mg/kg |
| CC(C(=O)COC(=O)c1ccncc1)c1ccc(-c2ccccc2F)cc1 (centres undefined) | 1170 mg/kg |
| CC(Oc1ccc(Oc2nc3ccc(Cl)cc3o2)cc1)C(=O)O (centres undefined) | 2360 mg/kg |

| Compound | LD50 |
| --- | --- |
| CC(C)c1ccccc1OP(=O)(Oc1ccccc1)Oc1ccccc1 | 10000 mg/kg |
| CC(=O)OC(C)C[N+](C)(C)C (centres undefined) | 750 mg/kg |
| Oc1ccc(-c2ccccc2)cc1CN1CCCC1 | 30 mg/kg |
| Nc1cc(Cl)c([N+](=O)[O-])cc1Cl | 2820 mg/kg |
| Fc1c(Cl)ccc2[nH]c(C(F)(F)F)nc12 | 5.72 mg/kg |
| CCCCC1(COC(=O)CCC(=O)O)C(=O)N(c2ccccc2)N(c2ccccc2)C1=O | 1700 mg/kg |
| CCCCC(CC)COP(OCC(CC)CCCC)OCC(CC)CCCC (centres undefined) | 6200 mg/kg |
| C=C(C)C(=O)CC | 419 mg/kg |
| Cn1cc[nH]c1=S | 2250 mg/kg |
| CCc1ccc(=O)n(CSP(=S)(OC)OC)n1 | 30 mg/kg |
| CCCCCCCCCCCCCCCCCC(=O)OCCCC | 32000 mg/kg |
| CCCC(C)(COC(N)=O)COC(=O)NC(C)C (centres undefined) | 1320 mg/kg |
| CNC(=O)Oc1ccc(CCC#N)cc1 | 620 mg/kg |
| Cc1cccc(C)n1 | 400 mg/kg |
| CC1CNCCN1 (centres undefined) | 2030 mg/kg |
| C1CN1P1(N2CC2)=NP(N2CC2)(N2CC2)=NP(N2CC2)(N2CC2)=N1 | 98 mg/kg |
| CCN(CC)CCOC(=O)CC(O)(c1ccccc1)c1ccccc1 | 2310 mg/kg |
| CN(C)C=Nc1c(I)cc(I)c(CCC(=O)O)c1I | 2500 mg/kg and 1030 mg/kg |
| CC(C)(C)C(O)/C(=C\c1ccc(Cl)cc1Cl)n1cncn1 (centres undefined) | 474 mg/kg |
| CCCCCCCCCCCCCC[n+]1ccc(C)cc1 | 250 mg/kg |
| O=C(OCCN1CCOCC1)c1cccnc1Nc1cccc(C(F)(F)F)c1 | 4300 mg/kg |
| COC(=O)c1c(Cl)c(Cl)c(C(=O)N(C)OC)c(Cl)c1Cl | 1170 mg/kg |
| c1ccc(N=Nc2ccccc2)cc1 | 1000 mg/kg |
| CCC1(NC(N)=O)CCCC1 | 950 mg/kg |
| O=C(O)c1ccc(C(=O)O)c2c(C(=O)O)ccc(C(=O)O)c12 | 7500 mg/kg |

| Compound | LD50 |
| --- | --- |
| C/N=N/Nc1ccc(Br)cc1 | 467 mg/kg |
| CCCOCCOC(=O)C1=C(C)NC(C)=C(C(=O)OCCOCCC)C1c1cccc([N+](=O)[O-])c1 | 1470 mg/kg |
| Cc1ccc(C)nc1 | 800 mg/kg |
| CC(=O)N(CCN(C(C)=O)C(C)=O)C(C)=O | 7940 mg/kg |
| C=CCNCC=C | 578 mg/kg |
| CC(C)(C)NCC(O)COc1cccc2c1CCC(=O)N2 (centres undefined) | 1330 mg/kg |
| CCOC(=O)CC(=O)CCl | 200 mg/kg |
| C=C(C)C(=O)OCCO | 5620 mg/kg |
| CCOc1ccccc1OCC | 7250 mg/kg |
| Cc1cc(S(=O)(=O)c2ccccc2)ccc1NS(=O)(=O)C(F)(F)F | 633 mg/kg |
| c1cn[nH]c1 | 1010 mg/kg |
| Clc1cc(Cl)c(-c2c(Cl)c(Cl)c(-c3c(Cl)cc(Cl)c(Cl)c3Cl)c(Cl)c2Cl)cc1Cl | 16000 mg/kg |
| O=C1Nc2ccc(Cl)cc2C(c2ccccc2Cl)=NC1O (centres undefined) | 4500 mg/kg |
| CN1CCCCC1C(CO)(c1ccccc1)c1ccccc1 (centres undefined) | 410 mg/kg |
| Cn1c(=O)c2c(ncn2CC(=O)O)n(C)c1=O | 900 mg/kg |
| Cc1ccc(S(=O)(=O)O)cc1 | 2570 mg/kg |
| CC(C)C12CCC(C)(CC1)O2 | 3100 mg/kg |
| C=CCOCC1CO1 (centres undefined) | 1600 mg/kg |
| CC(Cl)(Cl)CCl | 1140 mg/kg |
| O=C(O)CCC(=O)c1ccc(C2CCCCC2)c(Cl)c1 | 120 mg/kg and 300 mg/kg |
| CN(C)C1CSSSC1 | 195 mg/kg |
| Oc1ccc(C(c2ccc(O)cc2)(C(F)(F)F)C(F)(F)F)cc1 | 3400 mg/kg |
| CCc1ccc(C(=O)C(C)CN2CCCCC2)cc1 (centres undefined) | 1000 mg/kg |
| CC(COc1ccc(Cl)cc1Cl)C(=O)O (centres undefined) | 800 mg/kg |
| OCCI | 50 mg/kg |

| Compound | LD50 |
| --- | --- |
| OCC1COC(c2ccccc2)O1 (centres undefined) | 3150 mg/kg |
| CC(C)(C)NCC(O)COc1cccc2c1C[C@H](O)[C@H](O)C2 (some centres undefined) | 5300 mg/kg |
| Cc1cccc(C)c1N(Cn1cccn1)C(=O)CCl | 1000 mg/kg |
| CC(C)(C)C(CS(C)(=O)=O)=NO | 734 mg/kg |
| COP(=S)(OC)SCn1nc(Cl)ccc1=O | 5 mg/kg |
| CCOP(=O)(NC)Oc1ccc(SC)c(C)c1 (centres undefined) | 5 mg/kg |
| O=C1CN2CCOC2(c2ccccc2F)c2cc(Br)ccc2N1 (centres undefined) | 2860 mg/kg |
| CCSP(SCC)SCC | 355 mg/kg |
| CC[C@H]1OC(=O)[C@H](C)[C@@H](O[C@H]2C[C@@](C)(OC)[C@@H](O)[C@H](C)O2)[C@H](C)[C@@H](O[C@@H]2O[C@H](C)C[C@H](N(C)C)[C@H]2O)[C@](C)(OC)C[C@@H](C)C(=O)[C@H](C)[C@@H](O)[C@]1(C)O | 1270 mg/kg |
| CCSP(=O)(CCl)SCC | 35 mg/kg |
| CCCCNC(=O)c1ccccc1 | 5140 mg/kg |
| CCCC(=O)N(C)C(=O)Oc1cc(C)cc(C(C)C)c1 | 1220 mg/kg |
| CNC(=O)ON=C1CS(=O)CCS1 (centres undefined) | 12.3 mg/kg |
| Nc1ccc2c3c([nH]c2c1)CCCC3 | 290 mg/kg |
| COc1ccc(C(N)=O)cc1C(=O)NCc1cccnc1 | 1720 mg/kg |
| ClCCOCCOCCOCCCl | 180 mg/kg |
| CC(NNC(=O)c1ccccc1)c1ccccc1 (centres undefined) | 675 mg/kg |
| c1ccc([Se]c2ccccc2)cc1 | 360 mg/kg |
| C1CCC(C(CC2CCCCN2)C2CCCCC2)CC1 (centres undefined) | 2150 mg/kg |
| Cc1c(N(C)C)c(=O)n(-c2ccccc2)n1C | 285 mg/kg |
| COc1cc(C(F)(F)F)ccn1 | 1750 mg/kg |
| C/C(=C/CC[C@@]1(C)C2C[C@@H]3[C@H](C2)C31C)CO | 3800 mg/kg |
| O=C(OC1CCCCC1)C(Oc1ccc(Cl)cc1)Oc1ccc(Cl)cc1 | 900 mg/kg |
| CCCCNC(=S)NCCCC | 350 mg/kg |
